From patent publication US3955959A, “Herbicide for use in transplanted rice” (priority 1974, dated 1976)
Values joined by “and” are separate entries in the source; they are usually repeats but may differ in a detail not shown here. Equal entries are not always repeated.

Key:
[1] = test system: transplanted rice (ordinary and infant seedlings); test: Example 5 field test, rice yield; assay type: in vivo; conditions: in vivo
Protocol: (§1) In the tests described in the tables below, the herbicides were formulated and used in granular form in conventional manner. […] The commercial herbicide used was a granular product having 5% active ingredient.
(§2) In the field tests of the herbicide of this invention with transplanted rice, the rice seedlings were grown in conventional manner, by seeding the rice in a typical seedbed of sandy loam to clay soil of the country wherein the test was conducted. For laboratory and greenhouse work the seedlings were obtained by seeding rice in a mixture of soil, e.g., Ray silt loam, and peat in wood flats. For purposes of testing the herbicides on younger rice seedlings (infant or Dapog) the rice was usually allowed to grow for 6-15 days before lifting for transplanting. Older (ordinary) rice plants were usually grown for a period of about 2-3 weeks, or as much as about 7 weeks before lifting. Since the period of growth is dependent upon climatic conditions, a better measure of when to transplant the rice seedling is the leaf stage of growth; for infant or Dapog rice the seedling is lifted at the 1.5-2 leaf stage of growth, and for ordinary seedlings at the 2.5-5 leaf stage. The seedlings were then transplanted to the test plots for evaluation of the herbicide for injury against weed species present with the transplanted rice. The herbicides were then applied to the growth medium of the weeds and transplant rice, either preemergent or postemergent with respect to the weeds and postemergent with respect to the transplanted rice. Application times are designated in the tables as "DAT", meaning "days after transplant". Application rates given in the tables refer to the amount of active ingredient used.
(§3) The rice seedlings were grown to the 1.7 leaf stage for infant seedlings and to the 5.5 leaf stage for ordinary seedlings. Two days after puddling the soil in which the seedlings were to be transplanted, both infant and ordinary seedlings were transplanted into plots 8.5 m^2.
(§4) The weed symbol "Obw" represents "other broadleaf weeds" of unspecified identity. Results presented in Table 5 represent the average of 2 replications.

Cyperus difformis = test: Example 2 field test, weed control, Chia Yi, Taiwan; assay type: in vivo; conditions: obs. 63 DAT
Protocol: (§6) In the field tests of the herbicide of this invention with transplanted rice, the rice seedlings were grown in conventional manner, by seeding the rice in a typical seedbed of sandy loam to clay soil of the country wherein the test was conducted. For laboratory and greenhouse work the seedlings were obtained by seeding rice in a mixture of soil, e.g., Ray silt loam, and peat in wood flats. For purposes of testing the herbicides on younger rice seedlings (infant or Dapog) the rice was usually allowed to grow for 6-15 days before lifting for transplanting. Older (ordinary) rice plants were usually grown for a period of about 2-3 weeks, or as much as about 7 weeks before lifting. Since the period of growth is dependent upon climatic conditions, a better measure of when to transplant the rice seedling is the leaf stage of growth; for infant or Dapog rice the seedling is lifted at the 1.5-2 leaf stage of growth, and for ordinary seedlings at the 2.5-5 leaf stage. The seedlings were then transplanted to the test plots for evaluation of the herbicide for injury against weed species present with the transplanted rice. The herbicides were then applied to the growth medium of the weeds and transplant rice, either preemergent or postemergent with respect to the weeds and postemergent with respect to the transplanted rice. […] Application rates given in the tables refer to the amount of active ingredient used.

transplanted rice [2] = test: Example 2 field test, rice yield; assay type: in vivo, rice (Tainan No. 5, japonica); conditions: in vivo
Protocol: as §1, §2
Rice seedlings (ordinary) of Tainan No. 5 variety (japonica) were transplanted at 19 days of growth. Granular formulations of Herbicides A and B were applied at the 1 leaf stage of grass weed (4 DAT) and 2.5 leaf stage of grass weed (10 DAT). Observations were made at 63 DAT and results reported in Table 2 as an average of 3 replications.

[3] = test system: Sedges: Cd, Ci, Fl (Cyperus difformis, Cyperus iria, Fimbristylis littoralis); test: Example 3 field test on Dapog rice, weed control, Munoz, Philippines; assay type: in vivo; conditions: obs. 42 DAT
From the text: (§5) Treatments were replicated four times.

[4] = test system: Grass: Ec and Ecol (Echinochloa crusgalli, Echinochloa colonum); test: as above; assay type: in vivo; conditions: obs. 42 DAT
From the text: as §5

[5] = test system: Sedges: Cd, Ci, Fl (Cyperus difformis, Cyperus iria, Fimbristylis littoralis); test: Example 4 field test on ordinary rice, weed control, Munoz, Philippines; assay type: in vivo; conditions: obs. 36 DAT
From the text: as §5

[6] = test system: Grass: Ec and Ecol (Echinochloa crusgalli, Echinochloa colonum); test: as above; assay type: in vivo; conditions: obs. 36 DAT
From the text: as §5

Dapog transplanted rice = test: Example 3 field test, rice yield; assay type: in vivo; conditions: in vivo
Protocol: as §1, §2
Eleven (11) day-old Dapog seedlings were transplanted and treated at 5 DAT and 14 DAT with Herbicides A and B. The plots were overseeded with Echinochloa crusgalli seeds at 2 kgs/ha prior to transplanting. Treatments were replicated four times.

transplanted rice [7] = test: Example 1 field test, rice yield; assay type: in vivo, rice (Watanabe variety); conditions: in vivo
From the text: In the field test 48 day-old seedlings (Watanabe variety) were transplanted to plots 2.5 × 6 m. seeded with the weed seeds indicated in Table 1. At 5 and 10 DAT periods, the herbicides were applied to the plants (now at the 1.2 and 2.0 leaf stage, respectively, of grass weed) at the indicated rate in kilograms per hectare (kg/ha). The weed control and rice injury results for 3 replications are reported in percentages as of the indicated times of observation. The percentages given in the "Perennials" column are based on the weight of the weeds at 63 DAT, i.e., 42 gms/3.6 m^2 for the weedy check.

Echinochloa crusgalli = test: Example 2 field test, weed control, Chia Yi, Taiwan; assay type: in vivo; conditions: obs. 63 DAT
Protocol: as §6

[8] = test system: transplanted rice (ordinary and infant seedlings); test: Example 5 field test, rice injury
Protocol: as §1, §2, §3, §4

[9] = test system: Broadleaf: Mv, Sz (Monochoria vaginalis, Sphenoclea zeylanica); test: Example 4 field test on ordinary rice, weed control, Munoz, Philippines; assay type: in vivo, Monochoria vaginalis and Sphenoclea zeylanica; conditions: obs. 36 DAT
From the text: as §5

SMILES: CCCCOCN(C(=O)CCl)c1c(C)cccc1C(C)(C)C [Herbicide A, n-(butoxymethyl)-6'-tert-butyl-2-chloro-o-acetotoluidide]
- Yield % of H.W.C. [1]: 97% and 95% and 96% and 98% and 99% and 102%
- yields vs Herbicide B at 1.5 kg/ha 7 DAT [1]: essentially the same
- % Weed Control (Cyperus difformis) (Cyperus difformis; 4 DAT, 1.0 kg/ha): 100%
- % Weed Control (Cyperus difformis) (Cyperus difformis; 4 DAT, 2.0 kg/ha): 100%
- % Weed Control (Cyperus difformis) (Cyperus difformis; 4 DAT, .25 kg/ha): 100%
- % Weed Control (Cyperus difformis) (Cyperus difformis; 4 DAT, .5 kg/ha): 100%
- % Weed Control (Cyperus difformis) (Cyperus difformis; 10 DAT, 1.0 kg/ha): 100%
- % Weed Control (Cyperus difformis) (Cyperus difformis; 10 DAT, 2.0 kg/ha): 100%
- % Weed Control (Cyperus difformis) (Cyperus difformis; 10 DAT, .25 kg/ha): 100%
- % Weed Control (Cyperus difformis) (Cyperus difformis; 10 DAT, .5 kg/ha): 100%
- Yield (% of H.W. Check) (transplanted rice [2]): 97% and 105% and 107% and 81% and 91% and 100% and 73%
- rice yield depression (transplanted rice [2]): rice yield depression
- % Weed control, Sedges (Cd, Ci, Fl) ([3]; 5 DAT, 1.0 kg/ha): 100%
- % Weed control, Sedges (Cd, Ci, Fl) ([3]; 5 DAT, 2.0 kg/ha): 100%
- % Weed control, Sedges (Cd, Ci, Fl) ([3]; 5 DAT, .25 kg/ha): 100%
- % Weed control, Sedges (Cd, Ci, Fl) ([3]; 5 DAT, .5 kg/ha): 100%
- % Weed control, Sedges (Cd, Ci, Fl) ([3]; 14 DAT, 1.0 kg/ha): 70%
- % Weed control, Sedges (Cd, Ci, Fl) ([3]; 14 DAT, 2.0 kg/ha): 70%
- % Weed control, Sedges (Cd, Ci, Fl) ([3]; 14 DAT, .25 kg/ha): 0%
- % Weed control, Sedges (Cd, Ci, Fl) ([3]; 14 DAT, .5 kg/ha): 70%
- % Weed control, Grass (Ec and Ecol) ([4]; 5 DAT, 1.0 kg/ha): 100%
- % Weed control, Grass (Ec and Ecol) ([4]; 5 DAT, 2.0 kg/ha): 100%
- % Weed control, Grass (Ec and Ecol) ([4]; 5 DAT, .25 kg/ha): 100%
- % Weed control, Grass (Ec and Ecol) ([4]; 5 DAT, .5 kg/ha): 100%
- % Weed control, Grass (Ec and Ecol) ([4]; 14 DAT, 1.0 kg/ha): 50%
- % Weed control, Grass (Ec and Ecol) ([4]; 14 DAT, 2.0 kg/ha): 90%
- % Weed control, Grass (Ec and Ecol) ([4]; 14 DAT, .25 kg/ha): 0%
- % Weed control, Grass (Ec and Ecol) ([4]; 14 DAT, .5 kg/ha): 50%
- % Weed control, Sedges (Cd, Ci, Fl) ([5]; 5 DAT, 1.0 kg/ha): 100%
- % Weed control, Sedges (Cd, Ci, Fl) ([5]; 5 DAT, 2.0 kg/ha): 100%
- % Weed control, Sedges (Cd, Ci, Fl) ([5]; 5 DAT, .25 kg/ha): 100%
- % Weed control, Sedges (Cd, Ci, Fl) ([5]; 5 DAT, .5 kg/ha): 100%
- % Weed control, Sedges (Cd, Ci, Fl) ([5]; 14 DAT, 1.0 kg/ha): 60%
- % Weed control, Sedges (Cd, Ci, Fl) ([5]; 14 DAT, 2.0 kg/ha): 60%
- % Weed control, Sedges (Cd, Ci, Fl) ([5]; 14 DAT, .25 kg/ha): 60%
- % Weed control, Sedges (Cd, Ci, Fl) ([5]; 14 DAT, .5 kg/ha): 50%
- % Weed control, Grass (Ec and Ecol) ([6]; 5 DAT, 1.0 kg/ha): 100%
- % Weed control, Grass (Ec and Ecol) ([6]; 5 DAT, 2.0 kg/ha): 100%
- % Weed control, Grass (Ec and Ecol) ([6]; 5 DAT, .25 kg/ha): 100%
- % Weed control, Grass (Ec and Ecol) ([6]; 5 DAT, .5 kg/ha): 100%
- % Weed control, Grass (Ec and Ecol) ([6]; 14 DAT, 1.0 kg/ha): 80%
- % Weed control, Grass (Ec and Ecol) ([6]; 14 DAT, 2.0 kg/ha): 80%
- % Weed control, Grass (Ec and Ecol) ([6]; 14 DAT, .25 kg/ha): 60%
- % Weed control, Grass (Ec and Ecol) ([6]; 14 DAT, .5 kg/ha): 80%
- Yield (% of H.W. Check) (Dapog transplanted rice): 182% and 177% and 139% and 104% and 93% and 98% and 113%
- rice yield vs hand weeded check (Dapog transplanted rice): statistically similar to the hand weeded check
- yield in words (Dapog transplanted rice): outstanding
- Yield (% of Hand-weeded Check) (transplanted rice [7]): 102% and 101% and 100% and 98% and 99%
- % Weed Control (Echinochloa crusgalli) (Echinochloa crusgalli; 4 DAT, 1.0 kg/ha): 100%
- % Weed Control (Echinochloa crusgalli) (Echinochloa crusgalli; 4 DAT, 2.0 kg/ha): 100%
- % Weed Control (Echinochloa crusgalli) (Echinochloa crusgalli; 4 DAT, .25 kg/ha): 85%
- % Weed Control (Echinochloa crusgalli) (Echinochloa crusgalli; 4 DAT, .5 kg/ha): 98%
- % Weed Control (Echinochloa crusgalli) (Echinochloa crusgalli; 10 DAT, 1.0 kg/ha): 100%
- % Weed Control (Echinochloa crusgalli) (Echinochloa crusgalli; 10 DAT, 2.0 kg/ha): 100%
- % Weed Control (Echinochloa crusgalli) (Echinochloa crusgalli; 10 DAT, .25 kg/ha): 65%
- % Weed Control (Echinochloa crusgalli) (Echinochloa crusgalli; 10 DAT, .5 kg/ha): 95%
- Injury ([8]; 1.0 kg/ha, 15 DAT, infant seedlings): 0
- Injury ([8]; 1.0 kg/ha, 15 DAT, ordinary seedlings): 0
- Injury ([8]; .25 kg/ha, 2 DAT, infant seedlings): 0
- Injury ([8]; .25 kg/ha, 2 DAT, ordinary seedlings): 0
- Injury ([8]; .5 kg/ha, 7 DAT, infant seedlings): 0
- Injury ([8]; .5 kg/ha, 7 DAT, ordinary seedlings): 0
- injury to seedlings in words ([8]; ordinary and infant seedlings): Injury to neither ordinary nor infant seedlings occurred
- % Weed control, Broadleaf (Mv,Sz) ([9]; 5 DAT, 1.0 kg/ha): 100%
- % Weed control, Broadleaf (Mv,Sz) ([9]; 5 DAT, 2.0 kg/ha): 100%
- % Weed control, Broadleaf (Mv,Sz) ([9]; 5 DAT, .25 kg/ha): 100%
- % Weed control, Broadleaf (Mv,Sz) ([9]; 5 DAT, .5 kg/ha): 100%
- % Weed control, Broadleaf (Mv,Sz) ([9]; 14 DAT, 1.0 kg/ha): 60%
- % Weed control, Broadleaf (Mv,Sz) ([9]; 14 DAT, 2.0 kg/ha): 60%
- % Weed control, Broadleaf (Mv,Sz) ([9]; 14 DAT, .25 kg/ha): 50%
- % Weed control, Broadleaf (Mv,Sz) ([9]; 14 DAT, .5 kg/ha): 50%
